Experimental data taken from patent US10729653B2, “Pharmaceutical compositions comprising 2-oxo-1-pyrrolidine derivatives” (UCB BIOPHARMA SRL, priority 2009, dated 2020).

Legend:
GAERS rats = assay: spontaneous SWDs in GAERS rats; assay type: in vivo, rat
[1] = system: refractory partial onset seizures; conditions: adult patients, adjunctive treatment; cited from earlier work
[2] = system: pentylenetetrazol-induced clonic convulsions in mice; assay: chemically induced seizures in mice (pentylenetetrazol); assay type: in vivo; conditions: i.p. 30 min before seizure induction; higher ED50 values than in audiogenic mice
Method: The dose was selected based on dose-effect curves in saline-treated animals as the convulsive dose inducing clonic convulsions of all four extremities in 97% of the animals. Immediately after administration of the chemoconvulsant, the mice were placed individually in small plastic cages (25 13 8 cm) and observed for the presence of clonic convulsions in all four extremities, for 60 min. The occurrence of tonic convulsions (hindlimb extension) and mortality was also recorded during this interval. The proportion of mice protected against clonic convulsions was calculated and used as the end point for anticonvulsant activity.

[3] = system: fully amygdala-kindled rats; assay: fully amygdala-kindled rats; assay type: in vivo, rat; conditions: for dose from which a significant suppression in motor-seizure severity is induced: fully amygdala-kindled rats
[4] = system: genetically sound-sensitive male mice; assay: audiogenic seizures in mice; assay type: in vivo; conditions: audiogenic seizure-susceptible mice; i.p., brivaracetam 30 min, levetiracetam 60 min pretreatment
Method: Audiogenic seizures in mice: Genetically sound-sensitive male mice (16-28 g; n=10 per group), responding with wild running, clonic and tonic convulsions to an acoustic stimulation, were used. Audiogenic seizures were induced by an acoustic stimulus (90 dB, 10-20 kHz) applied for 30 s. The mice were pretreated with either saline, brivaracetam (i.p., 30 min) or levetiracetam (i.p., 60 min), and the proportion of mice protected against clonic convulsions was used as the end point to assess anticonvulsant activity.

rat hippocampal slices [5] = assay: epileptiform responses in hippocampal slices (CA3 field potentials); assay type: cell-based, Sprague-Dawley rats; parameters: rate of spontaneous field bursting: dose or concentration left out as unconfirmed; conditions: for evoked epileptiform responses (PS1 amplitude, repetitive PSs) in CA3: high-K+/low-Ca2+ fluid (HKLCF) perfusion, fimbrial stimulation
Method: The effect of brivaracetam on epileptiform responses induced by high-K+/low-Ca2+ concentrations or by bicuculline was examined in transverse hippocampal slices prepared from Sprague-Dawley rats according to previously reported standard procedures. The epileptiform responses were induced by passing from a normal perfusion of artificial cerebrospinal fluid (ACSF) (K+3 mM; Ca2+2.4 mM) to either high-K+/low-Ca2+ fluid (HKLCF) (K+7.5 mM; Ca2+0.5 mM) or to […] bicuculline methiodide (BMI)-containing ACSF.
Extracellular field potentials (FPs) were recorded in the CA3 area of the slices with 2 M NaCl-filled glass microelectrodes. The evoked FPs were recorded at 10-min intervals in response to fimbrial stimulation with constant current rectangular pulses that elicit a single population spike (PS) of 50-75% of the maximal amplitude when the slice is in ACSF. In the HKLCF model, 2 min of spontaneous activity were also recorded, in the middle of each 10-min interval between the recordings of evoked responses.
Either brivaracetam or levetiracetam was added to the bathing fluid of the slices 20 min before shifting from ACSF to either HKLCF or […] BMI-containing ACSF, and was kept in the perfusion fluid throughout the experiment.

post-herpetic neuralgia = conditions: patients; cited from earlier work
corneal kindling of mice = assay: corneal kindling of mice; assay type: in vivo
[6] = system: tonic hindlimb extension induced by a maximal electroshock in mice; assay: maximal electroshock in mice; assay type: in vivo; conditions: i.p. 30 min before seizure induction; higher ED50 values than in audiogenic mice
rat hippocampal slices [7] = conditions: background statement; cited from earlier work

| SMILES | dose from which spontaneous SWDs are significantly suppressed (GAERS rats; GAERS rats) [mg/kg] | inhibition of spontaneous SWDs (GAERS rats; highest dose tested (67.9 mg kg-1)) | efficacy in the treatment of epilepsy [1] | protection against clonic convulsions induced by pentylenetetrazol [2] | dose from which a significant suppression in motor-seizure severity is induced [3] [mg/kg] | after-discharge duration ([3]; highest dose tested (212.3 mg kg-1)) | protection against the expression of clonic convulsions [4] | rate of spontaneous field bursting (rat hippocampal slices [5]; HKLCF) | evoked epileptiform responses (PS1 amplitude, repetitive PSs) in CA3 (rat hippocampal slices [5]) | efficacy in post-herpetic neuralgia (post-herpetic neuralgia) | incidence of generalized motor seizures after termination of treatment (corneal kindling of mice; continued corneal stimulations, group previously treated with the highest dose) | incidence of generalized motor seizures (corneal kindling of mice; pretreatment during corneal kindling, levetiracetam at higher doses) | protection against tonic hindlimb extension induced by a maximal electroshock [6] | after-discharge duration ([3]; up to 1700 mg kg-1) | epileptiform responses induced by high-K+/low-Ca2+ concentrations and by bicuculline (rat hippocampal slices [7]) |
| --- | --- | --- | --- | --- | --- | --- | --- | --- | --- | --- | --- | --- | --- | --- | --- |
| CCC[C@@H]1CC(=O)N([C@@H](CC)C(N)=O)C1 [Brivaracetam, (2S)-2-[(4R)-2-oxo-4-propyl-pyrrolidin-1-yl]butanamide] | ≥ 2.1 | complete inhibition | effective in the treatment of epilepsy | protected | ≥ 21.2 | significantly reduced the after-discharge duration | protected | reduced the rate of this spontaneous bursting | reduced these epileptiform responses | effective in the treatment of patients with post-herpetic neuralgia | persistent reduction in the incidence of generalized motor seizures | significant reduction in the incidence of generalized motor seizures | protected | – | – |
| CC[C@@H](C(N)=O)N1CCCC1=O [Levetiracetam] | – | – | – | – | ≥ 170 | – | protected | – | reduced these epileptiform responses | – | – | – | – | inactive | reduces epileptiform responses |
| CC[C@@H](C(N)=O)N1C[C@H](C=C(F)F)CC1=O [Seletracetam, (2S)-2-[(4S)-4-(2,2-difluorovinyl)-2-oxo-pyrrolidin-1-yl]butanamide] | – | – | effective in the treatment of epilepsy | – | – | – | – | – | – | – | – | – | – | – | – |
